Consider 3 compounds from patent publication US5380834A, “Immuno-suppressive agent” (Ishihara Sangyo Kaisha Ltd., priority 1992, dated 1995).

Each structure is given as a SMILES string. ≈ marks a conversion by molar mass, not a printed value. Bounds are passed on as bounds.

One assay deals with murine thymocytes. Description: Effects on the mitogenic response by murine thymocytes (Con A stimulation, 3H-TdR uptake). The class given is cell-based, BALB/c murine. The following applies: Mus musculus, Thymocyte; BALB/c thymocytes, Con A 5 μg/ml, 48 hours, 3H-TdR uptake; read-out: IC50 value, a (mitogenic response of murine thymocytes).
Assay [1] has as its system Carrageenan-induced acute inflammation in rats. Description: Carrageenan-induced paw edema model (anti-inflammatory activity). Particulars: 50 mg/Kg orally one hour before carrageenan, 3 hours, n=4; control 144 ± 8; P < 0.01 (No. 29), P < 0.05 (Nos. 1, 17). The assay is classed as in vivo, SD male rat. The procedure: A test for an anti-inflammatory activity was conducted by means of carrageenan-induced paw edema model which is commonly used for evaluation of the effectiveness of a common anti-inflammatory agent (NSAID).
0.1 ml of a 1% λ-carrageenan solution was injected intradermally at the sole of the right paw of a SD male rat (six weeks old). Three hours later, the sole volumes of paws on both sides were measured, and the difference in the volume between the right paw and the left paw was taken as the degree of edema. The test compound was orally administered in an amount of 1 ml/100 g (body weight) one hour prior to the administration of carrageenan. To the control group, a physiological saline was administered in the same amount.

The subject of assay [2] is IgM antibody production from murine spleen B cells. Description: Effects on the IgM antibody production from murine spleen cells (LPS + IL4). The assay is classed as cell-based, BALB/c mouse. Particulars: Mus musculus, B-cell, 168 h; spleen B cells, LPS 10 μg/ml, IL4 100 U/ml, 7 days, enzyme-immunoassay; read-out: IC50 value, IgM antibody production.
Assay [3] relates to murine mixed lymphocyte reaction (spleen cells of BALB/c and C57BL/6 mice). Nature of the assay: Effects on the murine mixed lymphocyte reaction (3H-TdR uptake). The class given is cell-based. The following applies: Mus musculus, BALB/c + C57BL/6 spleen cells, 48 hours, read-out: IC50 value, b (murine mixed lymphocyte reaction).

A word on the IC50: it is the concentration at which inhibition is half-maximal. With `O[C@H]1C=C[C@H]2CO[C@@H]1O2` [Compound 1, 1,6-anhydro-3,4-dideoxy-β-D-threo-hex-3-enopyranose], the IC50 is 15 mg/L (≈ 117 µM) in the assay on murine thymocytes, 25 mg/L in assay [2] and 11 mg/L in assay [3]. Moreover, the “Swelling of paw, Average ± SD” value in assay [1] was 100 ± 33 × 10^-2 cm^3.

As to `O=C(O[C@H]1C=C[C@H]2CO[C@@H]1O2)c1ccco1` [Compound 17, 1,6-anhydro-3,4-dideoxy-2-O-(2-furancarbonyl)-β-D-threo-hex-3-enopyranose], the values for the IC50 (in the assay with murine thymocytes; in assay [2]; in assay [3]) were 190 mg/L (≈ 855 µM), 100 mg/L and 270 mg/L, respectively. Besides, the “Swelling of paw, Average ± SD” value in assay [1] was 95 ± 26 × 10^-2 cm^3.

`C#C[C@]1(O)C=C[C@H]2CO[C@@H]1O2` [Compound 29]: the results for the 50% inhibitory concentration (IC50) (in the assay on murine thymocytes; in assay [2]; in assay [3]) were 35 mg/L (≈ 230 µM), more than 1000 mg/L and more than 1000 mg/L, respectively. In addition, in assay [1], the “Swelling of paw, Average ± SD” value was 97 ± 22 × 10^-2 cm^3.
